Reference: patent US10576102B2, “KOC1-derived peptide and vaccine including same” (ONCOTHERAPY SCIENCE, INC., priority 2014, dated 2020)
Entries after “also recorded” stand apart in the source; their conditions may differ.

Experiments:
Format in all cases: cell-based, human
[1] = system: peptide-pulsed C1R-A03; test: In vitro CTL induction, IFN-gamma ELISPOT assay (HLA-A*0301); settings: CTLs induced with peptide-pulsed DCs from HLA-A*0301-positive volunteers; day 21; vs peptide-pulsed C1R-A03, compared with unpulsed control; listed as KOC1-A03-10-414
Description: (§1) C1R (C1R-A03) that stably expresses HLA-A*0301 was used as a stimulator cell. A cDNA encoding the open-reading frame of HLA-A*0301 was amplified by PCR and cloned into an expression vector. C1R cells were transfected with the expression vector, and then selected using G418 (Invitrogen) for two weeks. The G418-selected cells were seeded into wells containing G418-added culture medium in a 96-well plate, and further cultured for 30 days. The exogenous HLA-A*0301 expression in C1R cells was verified by flow cytometric analysis.
Monocyte-derived dendritic cells (DCs) were used as the antigen-presenting cell to induce a cytotoxic T lymphocyte (CTL) response against peptides presented on human leukocyte antigens (HLAs). As described in the other sections, DCs were generated in vitro (Nakahara S et al., Cancer Res 2003, 63(14): 4112-8). Specifically, peripheral-blood mononuclear cells isolated from healthy volunteers (HLA-A*0301-positive) with the Ficoll-Paque plus solution (Pharmacia) were separated by attaching to plastic tissue culture dishes (Becton Dickinson) and concentrated as a monocyte fraction. The monocyte-concentrated population was cultured in the presence of 1000 IU/ml granulocyte macrophage colony-stimulating factor (R&D System) and 1000 IU/ml interleukin(IL)-4 (R&D System) in an AIM-V medium (Invitrogen) containing 2% heat-inactivated autologous serum (AS). After seven days of culturing, the cytokine-induced DCs were pulsed with 20 micro-g/ml each of the synthesized peptides in an AIM-V medium at 37 degrees C. for three hours in the presence of 3 micro-g/ml beta 2-microglobulin. The generated cells appeared to express on their cell surface DC-associated molecules such as CD80, CD83, CD86 and HLA class II (data not shown). Next, these peptide-pulsed DCs were inactivated by X-ray irradiation (20 Gy), and mixed in a 1:20 ratio with autologous CD8^+ T cells obtained by positive selection using the CD8 Positive Isolation Kit (Dynal). These culture products were seeded in a 48-well plate (Corning). Each well was made to contain 1.5×10^4 peptide-pulsed DCs, 3×10^5 CD8^+ T cells and 10 ng/ml IL-7 (R&D System) in 0.5 ml of the AIM-V/2% AS medium. Three days later, these culture products were added with a final concentration of 20 IU/ml IL-2 (CHIRON). On day 7 and day 14, T cells were further stimulated with peptide-pulsed autologous DCs. The DCs were prepared every time by the same method as above. […]

[2] = system: peptide-pulsed C1R-A11; test: In vitro CTL induction, IFN-gamma ELISPOT assay (HLA-A*1101); settings: CTLs induced with peptide-pulsed DCs from HLA-A*1101-positive volunteers; day 21; vs peptide-pulsed C1R-A11, compared with unpulsed control
Description: as §1, with “(C1R-A11)” for “(C1R-A03)”, “HLA-A*1101” for “HLA-A*0301”
Monocyte-derived dendritic cells (DCs) were used as the antigen-presenting cell to induce a cytotoxic T lymphocyte (CTL) response against peptides presented on human leukocyte antigens (HLAs). As described in the other sections, DCs were generated in vitro (Nakahara S et al., Cancer Res 2003, 63(14): 4112-8). Specifically, peripheral-blood mononuclear cells isolated from healthy volunteers (HLA-A*1101-positive) with the Ficoll-Paque plus solution (Pharmacia) were separated by attaching to plastic tissue culture dishes (Becton Dickinson) and concentrated as a monocyte fraction. The monocyte-concentrated population was cultured in the presence of 1000 IU/ml granulocyte macrophage colony-stimulating factor (R&D System) and 1000 IU/ml interleukin(IL)-4 (R&D System) in an AIM-V medium (Invitrogen) containing 2% heat-inactivated autologous serum (AS). After seven days of culturing, the cytokine-induced DCs were pulsed with 20 micro-g/ml each of the synthesized peptides in an AIM-V medium at 37 degrees C. for three hours in the presence of 3 micro-g/ml beta 2-microglobulin. The generated cells appeared to express on their cell surface DC-associated molecules such as CD80, CD83, CD86 and HLA class II (data not shown). Next, these peptide-pulsed DCs were inactivated, by X-ray irradiation (20 Gy), and mixed in a 1:20 ratio with autologous CD8^+ T cells obtained by positive selection using the CD8 Positive Isolation Kit (Dynal). These culture products were seeded in a 48-well plate (Corning). Each well was made to contain 1.5×10^4 peptide-pulsed DCs, 3×10^5 CD8^+ T cells and 10 ng/ml IL-7 (R&D System) in 0.5 ml of the AIM-V/2% AS medium. Three days later, these culture products were added with a final concentration of 20 IU/ml IL-2 (CHIRON). On day 7 and day 14, T cells were further stimulated with peptide-pulsed autologous DCs. The DCs were prepared every time by the same method as above. On day 21, after the third peptide stimulation, CTLs were examined against the peptide-pulsed C1R-A11 by a human interferon (IFN)-gamma enzyme-linked immunospot (ELISPOT) assay (Tanaka H et al., Br J Cancer 2001, 84(1): 94-9; Umano Y et al., Br J Cancer 2001, 84(8): 1052-7; Uchida N et al., Clin Cancer Res 2004, 10(24): 8577-86; Suda T et al., Cancer Sci 2006, 97(5): 411-9; Watanabe T et al., Cancer Sci 2005, 96(8): 498-506).
(§2) Specifically, peptide-pulsed C1R-A11 (1×10^4 cells/well) was prepared as the stimulator cell. The induced CTLs, i.e., CTL lines and CTL clones, were used as the responder cell. The IFN-gamma ELISPOT assay and IFN-gamma ELISA were performed according to the manufacturer's manual.

[3] = system: peptide-pulsed C1R-A11; test: IFN-gamma ELISA of CTL lines and CTL clones (HLA-A*1101)
Description: CTLs were propagated in culture using methods similar to those disclosed by Riddell et al. (Walter E A et al., N Engl J Med 1995, 333(16): 1038-44; Riddell S R et al., Nat Med 1996, 2(2): 216-23). The CTLs were co-cultured in a total of 25 ml AIM-V medium containing 5% AS (AIM-V/5% AS) and 40 ng/ml anti-CD3 antibody with two types of Mitomycin C-treated human B lymphoblastoid cell lines at 5×10^6 cells/flask. One day after beginning of the culturing, 120 IU/ml IL-2 was added to the culture. On days 5, 8 and 11, a fresh AIM-V/5% AS medium containing 30 IU/ml IL-2 was added to the culture (Tanaka H et al., Br J Cancer 2001, 84(1): 94-9; Umano Y et al., Br J Cancer 2001, 84(8): 1052-7; Uchida N et al., Clin Cancer Res 2004, 10(24): 8577-86; Suda T et al., Cancer Sci 2006, 97(5): 411-9; Watanabe T et al., Cancer Sci 2005, 96(8): 498-506).
Dilution of CTLs was carried out to make 0.3, 1 and 3 cells/well in 96 round-bottomed microtiter plates (Nalge Nunc International). The CTLs were co-cultured with two types of Mitomycin C-treated human B lymphoblastoid cell lines at 1×10^4 cells/well in a total of 150 micro-1/well AIM-V/5% AS medium with 30 ng/ml anti-CD3 antibody and 125 IU/ml IL-2. Ten days later, IL-2 was added to the medium at 50 micro-1/well to reach a final concentration of 125 IU/ml. On day 14, the CTL activity was tested, and the CTL clones were propagated using the same method as described above (Uchida N et al., Clin Cancer Res 2004, 10(24): 8577-86; Suda T et al., Cancer Sci 2006, 97(5): 411-9; Watanabe T et al., Cancer Sci 2005, 96(8): 498-506).
as §2

ALSVGAIIGK (a peptide derived from KOC1) [SEQ ID NO: 28]
peptide-specific CTL activity (IFN-gamma production), ELISPOT [1]: no specific IFN-gamma production; also recorded: specific IFN-gamma production was not observed
peptide-specific CTL activity (IFN-gamma production), ELISPOT [2]: potent IFN-gamma production

LSVGAIIGK (a peptide derived from KOC1) [SEQ ID NO: 5]
IFN-gamma production of CTL clones, ELISA ([3]; CTL clones by limiting dilution, peptide-pulsed C1R-A11, listed as KOC1-A11-9-415): Potent IFN-gamma production
IFN-gamma production of CTL lines, ELISA ([3]; CTL lines, target cells pulsed with the peptide vs not pulsed, C1R-A11): potent IFN-gamma production
peptide-specific CTL activity (IFN-gamma production), ELISPOT [2]: potent IFN-gamma production
